Reference: patent publication US20230136562A1, “SPIROUREA DERIVATIVES” (Idorsia Pharmaceuticals Ltd, priority 2020, published 2023)
Where two headings read alike, the source gives them in different places.

System: primary neuronal cultures from embryonic rat brains
Test: Rat oscillation assay (FLIPR, neuronal calcium oscillations)
Type: cell-based
Settings: Rattus norvegicus
Protocol: A) Rat Oscillation Assay:
This assay is a functional phenotypic assay designed to mimic epileptic seizures using primary neuronal cultures from embryonic rat brains, which form a functional neuronal network that generate synchronized intracellular calcium concentration oscillations when cultured at high density in 384-well plate. The epileptic phenotype is induced by incubating the neurons in magnesium-free assay buffer, that results in increased probability of NMDA receptor activation, leading to an increased frequency and amplitude of intracellular calcium oscillations. Once neurons are incubated with the calcium indicator dye Fluo-8 AM (Tebu-bio), neuronal calcium oscillations can be monitored in real time using FLIPR® Tetra (fluorometric plate reader, Molecular Devices). With these recordings, the effect of anti-epileptic drugs can be quantified. The anti-epileptic effect of compounds, which activate directly or indirectly the Kv7 channels can be modulated by the Kv7 channel blocker XE-991. The assay was performed as described previously (Pacico N, Mingorance-Le Meur A. New In Vitro Phenotypic Assay for Epilepsy: Fluorescent Measurement of Synchronized Neuronal Calcium Oscillations. PLoS ONE 9(1) 2014) with modifications described hereafter.
Animal care followed standard procedures in accordance with swiss institutional guidelines. Dissociated neuronal cultures were obtained from cerebral cortices of embryonic Wistar rats at embryonic stage E18 (Charles River). The uterine horns were removed by caesarian surgery from deeply anesthetized rats (Isofurane) and sacrificed by decapitation. The embryos were decapitated by closing forceps. The brains were isolated and dissected one by one in ice-cold PBS (Life Technologies) under optical control using a binocular. Meninges, olfactory bulbs, and basal ganglia were removed. Cortical hemispheres (still including the hippocampus) were cut in small pieces with tweezers and placed on ice in pre-chilled Hibernate-E medium (Life technology). The hemispheres were then incubated in 10 mL of Hibernate-E containing 15 U/mL papain (Worthington) for 25 min at 30° C. with gentle mixing every 10 min. Genomic DNA was then digested by prolonging the incubation during 10 min at 37° C. in presence of 4 U/mL rDNase I (Ambion). The obtained suspension was then centrifuged at 800 g for 5 min and the cell pellet was resuspended in 2 mL Hibernate-E and gently dissociated by pipetting up and down 10 times with a plastic Pasteur pipette resulting in a homogenous cell suspension. This suspension was immediately filtered through a 70 µm cell strainer (MACS® SmartStrainer, Miltenyi), collected in 10 mL Hibernate-E and centrifuged at 800 g for 5 min. The cell pellet was resuspended in Neurobasal medium, supplemented with 2% B-27, 0.5 mM Glutamax-I, 100 U/mL penicillin, 100 µg/mL streptomycin (Life Technologies) and diluted at the final concentration of 300′000 cells/mL. One day before plating the cells, 384-well plates were coated with 25 μL/well of 0.1% poly-L-lysine solution (Sigma), incubated overnight at 37° C., washed two times with sterile distilled water and allowed to dry at room temperature for >2 h. The neurons were seeded at a density of 15′000 cells/well in 50 μL/well in a 384-well black, clear-bottomed plates (Corning) and subsequently maintained in an incubator at 37° C., 5% CO2 and 95% humidity for 8 to 10 days. After 3 and 7 days, 40% of media was renewed under sterile conditions.
Protocol Rat Oscillation Assay
Neurons seeded in the assay plates were washed with Hank's balanced salt solution (HBSS) devoid of Ca^2+ and Mg^2+, supplemented with 20 mM HEPES (Life Technologies) and 2 mM CaCl2 (Sigma), pH 7.4 (hereafter called Assay buffer) using a Biotek EL406 plate washer. Neurons were loaded with 1 μM Fluo-8 AM in Assay buffer for 15 min at 37° C., 5% CO2. […]

[1] = 20 min, AUC of fluorescence measured 20 min after compound addition, read-out: FLIPR: IC50 [nM] 20 min
[2] = Acute phase, ratio of AUC fluorescence before and after compound addition, read-out: FLIPR: IC50 [nM] acute

Structure (SMILES) | IC50 [1] [nM] | IC50 [2] [nM]
CCOCCC(NC(=O)NC1CC2(CCC2)C1)c1ccnc(OCC(F)(F)F)c1 (racemic) [Example 77, (±)-1-{3-Ethoxy-1-[2-(2,2,2-trifluoro-ethoxy)-pyridin-4-yl]-propyl}-3-spiro[3.3]hept-2-yl-urea] | 226 | 279
COCC(NC(=O)NC1CC2(CCC2)C1)c1cc(OCC(F)(F)F)ncn1 (racemic) [Example 78, (±)-1-{2-Methoxy-1-[6-(2,2,2-trifluoro-ethoxy)-pyrimidin-4-yl]-ethyl}-3-spiro[3.3]hept-2-yl-urea] | 7.2 | 9.4
NC(=O)CCC(NC(=O)NC1CC2(CCC2)C1)c1cccc(C(F)(F)F)c1 (racemic) [Example 79, (±)-4-(3-Spiro[3.3]hept-2-yl-ureido)-4-(3-trifluoromethyl-phenyl)-butyramide] | 634 | 599
C=CCC(NC(=O)NC1CC2(CCC2)C1)c1cccc(C(F)(F)F)c1 (racemic) [Example 80, (±)-1-Spiro[3.3]hept-2-yl-3-[1-(3-trifluoromethyl-phenyl)-but-3-enyl]-urea] | 14 | 13
CS(=O)(=O)CCC(NC(=O)NC1CC2(CCC2)C1)c1cccc(C(F)(F)F)c1 (racemic) [Example 81, (±)-1-[3-Methanesulfonyl-1-(3-trifluoromethyl-phenyl)-propyl]-3-spiro[3.3]hept-2-yl-urea] | 941 | 2180
Cc1nc(OCC(F)(F)F)cc(C(CO)NC(=O)NC2CC3(CCC3)C2)n1 (racemic) [Example 82, (±)-1-{2-Hydroxy-1-[2-methyl-6-(2,2,2-trifluoro-ethoxy)-pyrimidin-4-yl]-ethyl}-3-spiro[3.3]hept-2-yl-urea] | 59 | 66
O=C(NC1CC2(CCC2)C1)NC(CO)c1cc(OCC(F)(F)F)ncn1 (racemic) [Example 83, (±)-1-{2-Hydroxy-1-[6-(2,2,2-trifluoro-ethoxy)-pyrimidin-4-yl]-ethyl}-3-spiro[3.3]hept-2-yl-urea] | 100 | 93
O=C(NC1CC2(CCC2)C1)NC(CC(F)F)c1cccc(C(F)(F)F)c1 (racemic) [Example 84, (±)-1-[3,3-Difluoro-1-(3-trifluoromethyl-phenyl)-propyl]-3-spiro[3.3]hept-2-yl-urea] | 4.2 | 5.1
O=C(NC1CC2(CCC2)C1)NC(CCO)c1cc(OCC(F)(F)F)ncn1 (racemic) [Example 85, (±)-1-{3-Hydroxy-1-[6-(2,2,2-trifluoro-ethoxy)-pyrimidin-4-yl]-propyl}-3-spiro[3.3]hept-2-yl-urea] | 146 | 157
COCC(NC(=O)NC1CC2(CCC2)C1)c1cccc(S(C)(=O)=O)c1 (racemic) [Example 86, (±)-1-[1-(3-Methanesulfonyl-phenyl)-2-methoxy-ethyl]-3-spiro[3.3]hept-2-yl-urea] | 91 | 110
O=C(NC1CC2(CCC2)C1)NC(CO)c1cccc(OCC(F)(F)F)c1 (racemic) [Example 87, (±)-1-{2-Hydroxy-1-[3-(2,2,2-trifluoro-ethoxy)-phenyl]-ethyl}-3-spiro[3.3]hept-2-yl-urea] | 12 | 21
O=C(NC1CC2(CCC2)C1)NC(CCO)c1cccc(OCC(F)(F)F)c1 (racemic) [Example 88, (±)-1-{3-Hydroxy-1-[3-(2,2,2-trifluoro-ethoxy)-phenyl]-propyl}-3-spiro[3.3]hept-2-yl-urea] | 28 | 45
N#CC(NC(=O)NC1CC2(CCC2)C1)c1cccc(C(F)(F)F)c1 (racemic) [Example 89, 1-[(±)-Cyano-(3-trifluoromethyl-phenyl)-methyl]-3-spiro[3.3]hept-2-yl-urea] | 74 | 75
CC(NC(=O)NC1CC2(CCC2)C1)c1cccc(OCC(F)(F)F)c1 (racemic) [Example 90, (±)-1-Spiro[3.3]hept-2-yl-3-{1-[3-(2,2,2-trifluoro-ethoxy)-phenyl]-ethyl}-urea] | 2.7 | 4
